Reference: patent publication US20250388529A1, “N-Substituted Phenylalkylamines and Their Use as Therapeutic Agents” (priority 2023, published 2025)

Assays:
5-HT2A [1] = target: T1, 5-HT2A (Homo sapiens, UniProt P28223); details: Ca2+ mobilization; cited from earlier work
5-HT2A [2] = target: T1, 5-HT2A; details: cited from earlier work
rat 5-HT2A receptors = rat 5-HT2A receptors (Rattus norvegicus, UniProt P14842); details: [125I]-DOI competition binding; cited from earlier work
5-HT2A receptors = target: T2, 5-HT2A receptors (Rattus norvegicus, UniProt P14842); details: Xenopus oocytes; cited from earlier work
T2 construct: host or cells: Xenopus oocytes (transient)

5-HT2B = 5-HT2B (Homo sapiens, UniProt P41595); details: Ca2+ mobilization; cited from earlier work
[3] = cited from earlier work
5-HT2A [4] = target: T1, 5-HT2A; details: [125I]-DOI competition binding; cited from earlier work
human Nav1.1 and Navβ1 = human Nav1.1 and Navβ1 (Homo sapiens, UniProt P35498); test: cell-based

T1 sequence (P28223 whole entry): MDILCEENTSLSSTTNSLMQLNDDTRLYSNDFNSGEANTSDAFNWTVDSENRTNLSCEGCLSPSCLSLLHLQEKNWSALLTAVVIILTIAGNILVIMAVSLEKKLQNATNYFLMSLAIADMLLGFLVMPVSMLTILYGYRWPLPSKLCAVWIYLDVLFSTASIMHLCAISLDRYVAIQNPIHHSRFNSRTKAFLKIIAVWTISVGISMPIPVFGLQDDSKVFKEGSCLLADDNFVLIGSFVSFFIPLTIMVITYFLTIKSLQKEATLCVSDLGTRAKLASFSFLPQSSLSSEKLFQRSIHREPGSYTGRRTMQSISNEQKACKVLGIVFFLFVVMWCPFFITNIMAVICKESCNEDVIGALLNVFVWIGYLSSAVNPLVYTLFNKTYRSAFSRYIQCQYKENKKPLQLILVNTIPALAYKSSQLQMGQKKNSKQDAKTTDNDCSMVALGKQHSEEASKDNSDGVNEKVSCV
T2 sequence (P14842 whole entry): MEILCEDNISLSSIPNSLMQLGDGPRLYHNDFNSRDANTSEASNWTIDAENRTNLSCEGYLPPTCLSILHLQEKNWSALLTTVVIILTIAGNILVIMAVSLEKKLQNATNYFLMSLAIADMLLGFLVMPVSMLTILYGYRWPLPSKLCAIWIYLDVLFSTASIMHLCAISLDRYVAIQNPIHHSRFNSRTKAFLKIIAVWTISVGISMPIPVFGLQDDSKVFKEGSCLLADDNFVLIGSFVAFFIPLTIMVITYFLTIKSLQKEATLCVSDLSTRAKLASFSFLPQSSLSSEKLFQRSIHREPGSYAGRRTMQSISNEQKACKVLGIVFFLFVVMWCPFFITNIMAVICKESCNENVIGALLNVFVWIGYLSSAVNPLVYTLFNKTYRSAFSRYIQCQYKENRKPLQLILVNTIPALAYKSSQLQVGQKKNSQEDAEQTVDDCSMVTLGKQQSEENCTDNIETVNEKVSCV
Chain of rat 5-HT2A receptors (P14842 whole entry): as above
Chain of 5-HT2B (P41595 whole entry): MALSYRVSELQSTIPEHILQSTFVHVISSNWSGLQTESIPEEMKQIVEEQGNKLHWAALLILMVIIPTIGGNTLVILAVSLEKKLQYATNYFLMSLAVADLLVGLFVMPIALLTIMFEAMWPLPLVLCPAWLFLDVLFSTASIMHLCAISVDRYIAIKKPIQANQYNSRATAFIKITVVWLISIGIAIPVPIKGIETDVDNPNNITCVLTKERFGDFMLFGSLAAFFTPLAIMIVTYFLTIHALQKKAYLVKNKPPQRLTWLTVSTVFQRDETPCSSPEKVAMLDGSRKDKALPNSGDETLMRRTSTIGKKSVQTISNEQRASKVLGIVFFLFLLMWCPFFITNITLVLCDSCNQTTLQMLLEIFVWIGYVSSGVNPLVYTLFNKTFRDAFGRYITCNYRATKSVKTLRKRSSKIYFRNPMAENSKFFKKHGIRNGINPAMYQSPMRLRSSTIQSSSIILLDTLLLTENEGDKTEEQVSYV

Row | Compound | EC50 (5-HT2A [1]) [nM] | functional activity at the 5-HT2A receptor (5-HT2A [2]) | Ki (rat 5-HT2A receptors) [nM] | functional activity in 5-HT2A-mediated inward current recordings (5-HT2A receptors) | EC50 (5-HT2B) [nM] | oral activity (dose) [3] [mg] | Ki (5-HT2A [4]) [nM] | Normalized Peak INa Inhibition (human Nav1.1 and Navβ1) | Peak INa Density (human Nav1.1 and Navβ1) [pA/pF] | Peak INa Density @ −20 mV (human Nav1.1 and Navβ1) [pA/pF] | reduction of baseline peak INa (human Nav1.1 and Navβ1) [%]
1 | COc1cc(CCN)c(OC)cc1Br [2C-B] | 2.1 | partial agonist | 0.66 | antagonist | 57 | 12 to 24 | 0.88 | – | – | – | –
2 | NC1=N[C@H](O)[C@H]2[C@H]3O[C@]4(O)O[C@@H]([C@@H](O)[C@@]2(N1)[C@@H]4O)[C@]3(O)CO [TTX, Tetrodotoxin, reference compound] | – | – | – | – | – | – | – | 0.870 ± 0.02 | −56.3 ± 9.4 | −15.84±2.16 | 87±2
